From patent US20170080087A1, “Combination Therapies for Treating Her2-Positive Cancers that are Resistant to Her2-Targeted Therapies” (MERRIMACK PHARMACEUTICALS, INC., priority 2014, published 2017)

Key:
[1] = system: BT-474-M3 breast cancer cells; assay: BT-474-M3 breast cancer xenograft after failure to respond to T-DM1; format: in vivo, mice
Procedure: The response to the MM-302 and trastuzumab combination after failure to respond to T-DM1 was evaluated in the BT-474-M3 breast cancer xenograft model.
To obtain the BT-474-M3 HER2-overexpressing human breast cancer cell line, BT-474 cells (ATCC® HTB-20™) were passaged twice through mice with the fastest growing two tumors out of ten selected for ex-vivo propagation during each round of selection. Tumors were excised and cultured ex-vivo to obtain the M3 sub-line that was verified by SNP analysis. (see Noble, Cancer Chemother. Pharmacol. 2009 64:741-51).
Mice were inoculated with BT-474-M3 breast cancer cells (15×10^6; into the mammary fat pad). When tumor volumes reached about 360 mm^3, mice were treated with T-DM1 at either 1, 2, or 4 mg/kg (q1w) (white circles). […] At day 55, the mice were switched from T-DM1 treatment to the combination of MM-302 (3 mg/kg, q1w for a total of 3 doses; day 55, 62 and 69) and trastuzumab (at a loading dose of 8 mg/kg followed by 6 mg/kg q1w) (black squares). Changes in tumor volume as well as in mouse weight were monitored twice a week.

[2] = system: human cardiomyocytes; assay: Binding and uptake into human cardiomyocytes; format: cell-based; details: compared with MM-302 and untargeted pegylated liposomal doxorubicin
Text: Additionally, the number of HER2 receptors needed per cell to optimize the binding of MM-302 is approximately 200,000 HER2 receptors per cell. […] The primary mechanism of action of MM-302 is the use of the HER2 protein to selectively deliver doxorubicin into tumor cells that express greater than approximately 200,000 HER2 receptors per cell.

level of uptake into human cardiomyocytes [2] | Molecule | tumor response to single agent ([1]; T-DM1 1, 2 or 4 mg/kg q1w) | slope of tumor volume curve (linear regression) ([1]; days 0-55, during T-DM1 treatment)
– | T-DM1 | failed to respond | positive slope
relatively much higher | COc1cccc2c1C(=O)c1c(O)c3c(c(O)c1C2=O)C[C@@](O)(C(=O)CO)C[C@@H]3O[C@H]1C[C@H](N)[C@H](O)[C@H](C)O1 [free doxorubicin, (8S,10S)-10-(4-amino-5 hydroxy-6-methyl-tetrahydro-2H-pyran-2-yloxy)-6,8,11-trihydroxy-8-(2-hydroxyacetyl)-1-methoxy-7,8,9,10-tetrahydrotetracene-5,12-dione] | – | –
